The test system of one data set is mast cells. Description: Inhibition of histamine release from mast cells due to an antigen-antibody reaction (in vitro; ovalbumin-sensitized). Format: cell-based, Wister male rats. The settings on record: Mast cell; rat peritoneal mast cells; antigenic ovalbumin 10^-4 g/ml; 5 min pre-incubation, 10 min incubation at 37° C.; corrected for spontaneous release; read-out: concentration showing 50% inhibition of histamine release.

The nature of a further data set: Acute toxicity (LD50). Particulars: in vivo.
Setting [1] is: ip, read-out: LD50 values (i.p.).
[2] abbreviates: po, read-out: LD50 values (p.o.).

Molecules are shown by their SMILES. Where two headings read alike, the source gives them in different places.

As usually defined, the LD50 is the dose at which mortality reaches 50%. Consider `Cc1c(C)c2c(c(C)c1O[C@@H]1O[C@H](CO)[C@@H](O)[C@H](O)[C@@H]1O)CCC(C)(CCCC(C)CCCC(C)CCCC(C)C)O2` (mixture of isomers) [dl-α-tocopherylmannoside, dl-α-Tocopherylmannoside], for which the IC50 in the data set on mast cells is approximately 15 µg/mL. In addition, the results for the 50% lethal dose (LD50) in “Acute toxicity (LD50)” (setting [1]) and in “Acute toxicity (LD50)” (setting [2]) were more than 500 mg/kg and more than 5000 mg/kg, respectively.

For `Cc1c(C)c2c(c(C)c1OC1O[C@H](CO)[C@@H](O)[C@H](O)[C@H]1O)CCC(C)(CCCC(C)CCCC(C)CCCC(C)C)O2` (mixture of isomers) [dl-α-tocopherylglucoside, dl-α-Tocopherylglucoside], the IC50 with mast cells is approximately 50 µg/mL. Moreover, the LD50 was more than 500 mg/kg in “Acute toxicity (LD50)” (setting [1]) and more than 5000 mg/kg in the data set “Acute toxicity (LD50)” (setting [2]).

The record behind these values is patent US4617292A, “Pharmaceutical compositions and method for inhibiting histamine release tocopheryl glycoside” (Sunstar Kabushiki Kaisha, priority 1984, dated 1986).
